Values quoted from earlier work in patent US9186326B2 (Kimia Zist Parsian (KZP), priority 2014, dated 2015).

Tested on: glucocorticoid effect

## Dexamethasone
  mineral corticoid effect: minimal mineral corticoid effect
Versus cortisol
  potency relative to cortisol in glucocorticoid effect: twenty five
